Experimental data reported in patent publication EP3050567B1, “COMPOUND FOR ACTIVATING AMPK AND USES THEREOF” (Energenesis Biomedical Co., Ltd., priority 2013, dated 2015).
pIC50: −log10 of the molar value.

How the values were obtained:
AMPK [1] = experiment: AMPK activation assay (phospho-AMPK Thr172 western blot) in HT29 cells; format: cell-based, human; details: 30 min
Procedure: (§1) Effects of adenine on AMPK activation were evaluated based on the phosphorylation of AMPK protein upon adenine treatment. Mouse muscle cell C2C12, mouse fibroblast 3T3, human liver carcinoma cell Hep G2, human breast adenocarcinoma cell line MCF7 and human colon adenocarcinoma grade II cell line HT29, human umbilical vein endothelial cell HUVEC, Human acute monocytic leukemiacell THP1, human macrophage cell U937, murine microglia cell BV-2, and mouse neuroblastoma cell Neuro2A and dermal papilla cell were cultured in high-glucose Dulbecco's modified Eagle's medium (DMEM) containing 10% fetal bovine serum (FBS), 4 mM L-glutamine, 2 mM sodium pyruvate and 1% penicillin/streptomycin (Invitrogen GibcoBRL, Carlsbad, Calif., USA) at 37°C, under 5% CO2. Cells were plated at 3 × 10^5 per well in 6-well plates. Twenty-four hours after plating, adenine was added to the culture media as indicated. After 30 min cells were lysed and subject to western blot analysis. Equal amount of protein from each sample was separated by SDS-PAGE and then electroblotted on to PVDF membranes. Membranes were blocked with 3% BSA in PBS for 60 min and incubated with an anti-phospho-AMPK (Thr172) antibody (1:2,000, Cell signaling) or an anti-AMPK antibody (1:2,000, Cell signaling) at 4°C for 16 h followed by the corresponding secondary antibody for 1 h at room temperature (RT). Immunoreactive bands were detected by enhanced chemiluminescence and recorded using Kodak film. The detected signals were scanned and then quantified using TotalLab Quant software (TotalLab).

AMPK [2] = experiment: AMPK activation assay (phospho-AMPK Thr172 western blot) in Neuro2A cells; format: cell-based, mouse; details: 30 min
Procedure: as §1

high-fat diet-fed mice = experiment: Anti-diabetic effects in high-fat diet-fed mice; format: in vivo, C57BL/6J mice; details: adenine 0.1 to 50 mg/kg IP twice a day for 6 days, compared to control group
Procedure: To further evaluate the effects of adenine on the modulation of plasma glucose level, the high-fat diet-fed mice were served as a type 2 diabetes animal model. C57BL/6J mice were maintained at 22°C under a 12-h light/dark cycle and fed either a high fat diet (60% kcal% fat) or a normal diet ad libitum. Intraperitoneal injections of adenine (0.1 to 50 mg/kg) or vehicle were given to the high-fat diet-fed mice from the age of 24 weeks and glucose readings were measure at 1 and 3 hr. IP administration of adenine or vehicle only to the high-fat diet-fed mice continued twice a day for 6 days. On day 6, plasma was collected 1 hr after the last dosing for analyzing, evaluating, measuring plasma glucose and triglycerides.

AMPK [3] = experiment: AMPK activation assay (phospho-AMPK Thr172 western blot) in MCF7 cells; format: cell-based, human; details: 30 min
Procedure: as §1

COX-2 = experiment: LPS-induced inflammatory response in THP1 macrophages, intracellular COX-2 (western blot); format: cell-based, human; details: 50 ng LPS 6 hr
Procedure: Effects of adenine on inflammatory response were evaluated in human THP1 macrophage by examining protein level of intracellular COX-2 and secreted TNFα, IL-1β and IL-6. Differentiation of THP1 monocytes into macrophages was induced by 50 nM PMA for 24 hr. THP1 macrophages were further stimulated by 50 ng LPS for 6 hr in the presence of 10-600 µM of adenine or vehicle followed by cell lysis and western blot analysis. Equal amounts of protein were separated by SDS-PAGE and then electroblotted on to PVDF membranes. Membranes were blocked with 3% BSA in PBS for 60 min and incubated with an anti-COX-2 antibody (1:1,000, Cell signaling), an anti-actin antibody (1:5,000, Cell signaling) at 4° C for 16 h followed by the corresponding secondary antibody for 1 h at room temperature (RT). Immunoreactive bands were detected by enhanced chemiluminescence and recorded using Kodak film. The detected signals were scanned and then quantified using TotalLab Quant software (TotalLab). The secreted TNFα, IL-1β and IL-6 were analyzed by enzyme-linked immunosorbent assays.

AMPK [4] = experiment: AMPK activation assay (phospho-AMPK Thr172 western blot) in U937 cells; format: cell-based, human; details: 30 min
Procedure: as §1

Amyloid β peptide = Amyloid β peptide assay in Neuro2A cells transfected with human APP695 (western blot); format: cell-based, mouse; details: 24 h
Procedure: Effects of adenine on Amyloid β peptide were analyzed in mouse neuroblastoma cell Neuro2A. Neuro2A cells were cultured in high-glucose Dulbecco's modified Eagle's medium (DMEM) containing 10% fetal bovine serum (FBS), 4 mM L-glutamine, 2 mM sodium pyruvate and 1% penicillin/streptomycin (Invitrogen GibcoBRL, Carlsbad, Calif., USA) at 37°C under 5% CO2. Cells were plated at 3 × 10^5 per well (6-well plate). 24 h after plating, cells were transfected with human APP695 and treated with indicated concentration of adenine for 24 h followed by cell lysis and western blot analysis. Equal amounts of protein were separated by SDS-PAGE and then electroblotted on to PVDF membranes. Membranes were blocked with 3% BSA in PBS for 60 min and incubated with an anti-Aβ antibody (1:1,000, abcam), an anti-LC3 antibody (1:1,000, Cell signaling), and an anti-actin antibody (1:5,000, Cell signaling) at 4°C for 16 h followed by the corresponding secondary antibody for 1 h at room temperature (RT). Immunoreactive bands were detected by enhanced chemiluminescence and recorded using Kodakfilm. The detected signals were scanned and then quantified by using TotalLab Quant software (TotalLab).

MCF7 = experiment: Cancer cell growth inhibition assay, MCF7; format: cell-based; details: Homo sapiens; MCF7 cell proliferation, 72 h, cell counting
Procedure: Human liver hepatocellular carcinoma cell line Hep G2, human breast adenocarcinoma cell line MCF7 and human colon adenocarcinoma grade II cell line HT29 were used to evaluate the effects of adenine on cell proliferation. Those cell lines were obtained from ATCC and were cultured in high-glucose Dulbecco's modified Eagle's medium (DMEM) containing 10% fetal bovine serum (FBS), 4 mM L-glutamine, 2 mM sodium pyruvate and 1% penicillin/streptomycin (Invitrogen GibcoBRL, Carlsbad, Calif., USA) at 37°C under 5% CO2. Cells were plated at 1 × 10^5 per well (6-well plate). Twenty-four hours after plating, cells were treated with indicated concentration of adenine for 72 h and then followed by cell counting. Cells were detached using trypsin-EDTA solution and stained with trypan blue. The living cells were counted using hemocytometer.

Nc1ncnc2nc[nH]c12 [Adenine, adenine]
AMPK activation (fold to control) (AMPK [1]; adenine 1 microM): 1.1 fold to control
AMPK activation (fold to control) (AMPK [1]; adenine 10 microM): 1.7 fold to control
AMPK activation (fold to control) (AMPK [1]; adenine 100 microM): 2.9 fold to control
AMPK activation (fold to control) (AMPK [1]; adenine 200 microM): 3.4 fold to control
AMPK activation (fold to control) (AMPK [1]; adenine 600 microM): 3.8 fold to control
AMPK activation (fold to control) (AMPK [2]; adenine 1 microM): 1.2 fold to control
AMPK activation (fold to control) (AMPK [2]; adenine 10 microM): 2.1 fold to control
AMPK activation (fold to control) (AMPK [2]; adenine 100 microM): 3.4 fold to control
lower body weight (high-fat diet-fed mice): more than 15%
lower plasma glucose (high-fat diet-fed mice): > 30%
lower plasma triacylglycerides (high-fat diet-fed mice): more than 35%
lower plasma glucose (high-fat diet-fed mice; listed as adenine): more than 30%
AMPK activation (fold to control) (AMPK [3]; adenine 1 microM): 1.2 fold to control
AMPK activation (fold to control) (AMPK [3]; adenine 10 microM): 1.6 fold to control
AMPK activation (fold to control) (AMPK [3]; adenine 100 microM): 2.5 fold to control
AMPK activation (fold to control) (AMPK [3]; adenine 200 microM): 3.4 fold to control
AMPK activation (fold to control) (AMPK [3]; adenine 600 microM): 3.7 fold to control
COX-2 (% to control) (COX-2; adenine 10 microM): 81±4.4 % to control
COX-2 (% to control) (COX-2; adenine 100 microM): 59±3.5 % to control
COX-2 (% to control) (COX-2; adenine 600 microM): 38±5.3 % to control
AMPK activation (fold to control) (AMPK [4]; adenine 1 microM): 1.1 fold to control
AMPK activation (fold to control) (AMPK [4]; adenine 10 microM): 1.3 fold to control
AMPK activation (fold to control) (AMPK [4]; adenine 100 microM): 2.9 fold to control
AMPK activation (fold to control) (AMPK [4]; adenine 200 microM): 3.7 fold to control
AMPK activation (fold to control) (AMPK [4]; adenine 600 microM): 4.0 fold to control
sAβ level (% of control) (Amyloid β peptide; Neuro2A cells transfected with human APP695, adenine 10 microM): 89 ± 7.5 % of control
sAβ level (% of control) (Amyloid β peptide; Neuro2A cells transfected with human APP695, adenine 20 microM): 63 ± 2.2 % of control
sAβ level (% of control) (Amyloid β peptide; Neuro2A cells transfected with human APP695, adenine 30 microM): 48.1 ± 1.7 % of control
sAβ level (% of control) (Amyloid β peptide; Neuro2A cells transfected with human APP695, adenine 40 microM): 31.7 ± 5.1 % of control
sAβ level (% of control) (Amyloid β peptide; Neuro2A cells transfected with human APP695, adenine 50 microM): 29.4 ± 3.6 % of control
pIC50 (MCF7): 3.27
